Results as given in ChEMBL document CHEMBL5303573, “Mapping human microbiome drug metabolism by gut bacteria and their genes” (Nature, 2019).

Experiments:
[1] = The drug is tested on Bifidobacterium longum subsp. Infantis strain: CCUG52486 for biotransformation. The drug concentrations were measured before and after a 12-h incubation by liquid-chromatography-coupled mass spectrometry (LC–MS); details: 2 µM
[2] = The drug is tested on Bifidobacterium ruminantium strain: fecal isolate for biotransformation. The drug concentrations were measured before and after a 12-h incubation by liquid-chromatography-coupled mass spectrometry (LC–MS); details: 2 µM
[3] = The drug is tested on Bacteroides pectinophilus strain: ATCC43243 for biotransformation. The drug concentrations were measured before and after a 12-h incubation by liquid-chromatography-coupled mass spectrometry (LC–MS); details: 2 µM
[4] = The drug is tested on Bacteroides uniformis strain: ATCC8492 for biotransformation. The drug concentrations were measured before and after a 12-h incubation by liquid-chromatography-coupled mass spectrometry (LC–MS); details: 2 µM
[5] = The drug is tested on Anaerotruncus colihominis strain: DSM17241 for biotransformation. The drug concentrations were measured before and after a 12-h incubation by liquid-chromatography-coupled mass spectrometry (LC–MS); details: 2 µM
[6] = The drug is tested on Clostridium sp. strain: fecal isolate for biotransformation. The drug concentrations were measured before and after a 12-h incubation by liquid-chromatography-coupled mass spectrometry (LC–MS); details: 2 µM
[7] = The drug is tested on Coprococcus comes strain: ATCC27758 for biotransformation. The drug concentrations were measured before and after a 12-h incubation by liquid-chromatography-coupled mass spectrometry (LC–MS); format: ADME; design: dose 2 uM, timepoint 0 vs 12 hours; details: 2 µM
[8] = The drug is tested on Eubacterium hallii strain: DSM3353 for biotransformation. The drug concentrations were measured before and after a 12-h incubation by liquid-chromatography-coupled mass spectrometry (LC–MS); details: anaerobutyricum hallii, 2 µM
[9] = The drug is tested on Providencia stuartii strain: ATCC25827 for biotransformation. The drug concentrations were measured before and after a 12-h incubation by liquid-chromatography-coupled mass spectrometry (LC–MS); details: 2 µM
[10] = bifidobacterium adolescentis, 12 h, 2 µM
Description: The drug is tested on Bifidobacterium adolescentis strain: ATCC 15703 for biotransformation. The drug concentrations were measured before and after a 12-h incubation by liquid-chromatography-coupled mass spectrometry (LC–MS)

[11] = bacteroides eggerthii, 12 h, 2 µM
Description: The drug is tested on Bacteroides eggerthii strain: DSM20697 for biotransformation. The drug concentrations were measured before and after a 12-h incubation by liquid-chromatography-coupled mass spectrometry (LC–MS)

[12] = bacteroides intestinalis, 12 h, 2 µM
Description: The drug is tested on Bacteroides intestinalis strain: DSM17393 for biotransformation. The drug concentrations were measured before and after a 12-h incubation by liquid-chromatography-coupled mass spectrometry (LC–MS)

[13] = parabacteroides distasonis, 12 h, 2 µM
Description: The drug is tested on Parabacteroides distasonis strain: ATCC8503 for biotransformation. The drug concentrations were measured before and after a 12-h incubation by liquid-chromatography-coupled mass spectrometry (LC–MS)

[14] = segatella copri, 12 h, 2 µM
Description: The drug is tested on Prevotella copri strain: DSM18205 for biotransformation. The drug concentrations were measured before and after a 12-h incubation by liquid-chromatography-coupled mass spectrometry (LC–MS)

[15] = enterocloster bolteae, 12 h, 2 µM
Description: The drug is tested on Clostridium bolteae strain: ATCCBAA-613 for biotransformation. The drug concentrations were measured before and after a 12-h incubation by liquid-chromatography-coupled mass spectrometry (LC–MS)

[16] = roseburia intestinalis, 12 h, 2 µM
Description: The drug is tested on Roseburia intestinalis strain: L1-82 for biotransformation. The drug concentrations were measured before and after a 12-h incubation by liquid-chromatography-coupled mass spectrometry (LC–MS)

[17] = akkermansia muciniphila, 12 h, 2 µM
Description: The drug is tested on Akkermansia muciniphila strain: ATCC BAA-835 for biotransformation. The drug concentrations were measured before and after a 12-h incubation by liquid-chromatography-coupled mass spectrometry (LC–MS)

[18] = The drug is tested on Eubacterium rectale strain: ATCC33656 for biotransformation. The drug concentrations were measured before and after a 12-h incubation by liquid-chromatography-coupled mass spectrometry (LC–MS); details: agathobacter rectalis, 2 µM
[19] = The drug is tested on Providencia rettgeri strain: DSM1131 for biotransformation. The drug concentrations were measured before and after a 12-h incubation by liquid-chromatography-coupled mass spectrometry (LC–MS); format: ADME; design: dose 2 uM, timepoint 0 vs 12 hours; details: 2 µM

Bacterial Biotransformation [1]	Bacterial Biotransformation [2]	Bacterial Biotransformation [3]	Bacterial Biotransformation [4]	Bacterial Biotransformation [5]	Bacterial Biotransformation [6]	Bacterial Biotransformation [7]	Bacterial Biotransformation [8]	Bacterial Biotransformation [9]	Bacterial Biotransformation [10]	Bacterial Biotransformation [11]	Bacterial Biotransformation [12]	Bacterial Biotransformation [13]	Bacterial Biotransformation [14]	Bacterial Biotransformation [15]	Bacterial Biotransformation [16]	Bacterial Biotransformation [17]	Bacterial Biotransformation [19]	Structure (SMILES)	Bacterial Biotransformation [18]
Compound NOT metabolized	Compound NOT metabolized	Compound NOT metabolized	Compound NOT metabolized	Compound NOT metabolized	Compound NOT metabolized	Compound NOT metabolized	Compound NOT metabolized	Compound NOT metabolized	Compound NOT metabolized	Compound NOT metabolized	Compound NOT metabolized	Compound NOT metabolized	Compound NOT metabolized	Compound NOT metabolized	Compound NOT metabolized	Compound NOT metabolized	–	CC1=C(CC(=O)O)c2cc(F)ccc2/C1=C\c1ccc([S+](C)[O-])cc1 (stereo unspecified)	–
Compound NOT metabolized	–	Compound NOT metabolized	Compound NOT metabolized	Compound NOT metabolized	Compound metabolized	–	Compound NOT metabolized	Compound NOT metabolized	Compound NOT metabolized	Compound NOT metabolized	Compound NOT metabolized	Compound NOT metabolized	Compound NOT metabolized	–	Compound NOT metabolized	Compound NOT metabolized	–	CCCc1nn(C)c2c(=O)[nH]c(-c3cc(S(=O)(=O)N4CCN(C)CC4)ccc3OCC)nc12.O=C(O)CC(O)(CC(=O)O)C(=O)O [SILDENAFIL CITRATE]	Compound NOT metabolized
Compound NOT metabolized	–	Compound NOT metabolized	Compound NOT metabolized	Compound NOT metabolized	Compound NOT metabolized	Compound NOT metabolized	Compound NOT metabolized	Compound NOT metabolized	Compound NOT metabolized	Compound NOT metabolized	Compound NOT metabolized	–	–	Compound NOT metabolized	Compound NOT metabolized	Compound NOT metabolized	Compound NOT metabolized	CCN1CCCC1CNC(=O)c1cc(S(N)(=O)=O)ccc1OC (stereo unspecified) [SULPIRIDE]	Compound NOT metabolized
Compound metabolized	Compound metabolized	Compound metabolized	Compound metabolized	Compound NOT metabolized	Compound metabolized	Compound NOT metabolized	Compound metabolized	–	Compound NOT metabolized	Compound metabolized	Compound NOT metabolized	Compound metabolized	Compound metabolized	Compound NOT metabolized	Compound NOT metabolized	–	Compound NOT metabolized	Cc1ccc(S(=O)(=O)NC(=O)NN2CCCCCC2)cc1 [TOLAZAMIDE]	–
Compound metabolized	–	Compound NOT metabolized	Compound metabolized	Compound NOT metabolized	Compound NOT metabolized	Compound NOT metabolized	Compound NOT metabolized	Compound metabolized	Compound NOT metabolized	Compound metabolized	Compound metabolized	Compound metabolized	Compound metabolized	Compound NOT metabolized	Compound NOT metabolized	Compound NOT metabolized	–	N#Cc1ccc2[nH]cc(CCCCN3CCN(c4ccc5oc(C(N)=O)cc5c4)CC3)c2c1 [VILAZODONE]	–

Structure (SMILES)	Bacterial Biotransformation [1]	Bacterial Biotransformation [2]	Bacterial Biotransformation [3]	Bacterial Biotransformation [4]	Bacterial Biotransformation [5]	Bacterial Biotransformation [6]	Bacterial Biotransformation [7]	Bacterial Biotransformation [8]	Bacterial Biotransformation [9]	Bacterial Biotransformation [10]	Bacterial Biotransformation [11]	Bacterial Biotransformation [12]	Bacterial Biotransformation [13]	Bacterial Biotransformation [14]	Bacterial Biotransformation [15]	Bacterial Biotransformation [16]	Bacterial Biotransformation [17]	Bacterial Biotransformation [19]	Bacterial Biotransformation [18]
O=C1CC2(CCCC2)CC(=O)N1CCCCN1CCN(c2ncccn2)CC1 [BUSPIRONE]	Compound NOT metabolized	–	Compound NOT metabolized	Compound NOT metabolized	Compound NOT metabolized	Compound NOT metabolized	Compound NOT metabolized	Compound NOT metabolized	Compound NOT metabolized	Compound NOT metabolized	Compound NOT metabolized	Compound NOT metabolized	Compound NOT metabolized	Compound NOT metabolized	Compound NOT metabolized	Compound NOT metabolized	Compound NOT metabolized	–	Compound NOT metabolized
CN(CCOc1ccc(CC2SC(=O)NC2=O)cc1)c1ccccn1.O=C(O)/C=C\C(=O)O (stereo unspecified) [ROSIGLITAZONE MALEATE]	Compound NOT metabolized	–	Compound NOT metabolized	Compound NOT metabolized	Compound NOT metabolized	Compound NOT metabolized	Compound NOT metabolized	Compound NOT metabolized	Compound NOT metabolized	Compound NOT metabolized	Compound NOT metabolized	Compound NOT metabolized	Compound NOT metabolized	Compound NOT metabolized	Compound NOT metabolized	Compound NOT metabolized	Compound NOT metabolized	Compound NOT metabolized	–
CCCCCNC(=N)N/N=C/c1c[nH]c2ccc(OC)cc12.O=C(O)/C=C\C(=O)O [TEGASEROD MALEATE]	Compound NOT metabolized	–	Compound NOT metabolized	Compound NOT metabolized	Compound NOT metabolized	Compound NOT metabolized	Compound NOT metabolized	Compound NOT metabolized	Compound NOT metabolized	Compound NOT metabolized	Compound NOT metabolized	Compound NOT metabolized	Compound NOT metabolized	Compound NOT metabolized	Compound NOT metabolized	Compound NOT metabolized	Compound NOT metabolized	–	Compound NOT metabolized
